In US20020049169A1, “Method for reducing toxicity of combined chemotherapies” (priority 2000, published 2002):
“Also recorded” adds a separate entry of the source.

Key:
Type in all cases: biochemical
human cardiac cytosol [1] = assay: Reconstitution of DOX metabolism and DOXol formation, plus or minus taxanes, in human cardiac cytosol; conditions: for stimulation of DOXol formation (in words): [4Fe-4S]-depleted human cardiac cytosol, DOX 25 μM, taxane 1-50 μM, 4 h; for cytoplasmic conversion of DOX to doxorubicinol: human cardiac cytosol, n=3
From the text: (§1) The enzymes of DOX metabolism are strongly species-related. To avoid the potential pitfalls associated with studies in animal models, an in vitro human heart assay was utilized. The assay involves isolation of both cytosolic fractions generating DOXol, and microsomal fractions converting DOX to free radicals.
Reconstitution of DOX Metabolism and DOXol Formation, Plus or Minus Taxanes, in Human Cardiac Cytosol.
(§2) Human myocardium is obtained from patients undergoing aorto-coronary bypass grafting. All samples were routinely disposed of by the surgeons from the lateral aspect of excluded right atrium during cannulation procedures for cardio-pulmonary by-pass. After storage at −80° C., pools of 15-20 samples are processed for cytosol preparation by sequential homogenization, ultracentrifugation and overnight 65% ammonium sulfate precipitation of 105,000 g supernatants. Next, cytosol is dialyzed against 100 mM Tris HCl-40 mM KCl, pH 8.9, diluted to 3 mg protein/ml with the same buffer, and incubated for 15 minutes at room temperature with 100 mM dithiothreitol to promote non-denaturing disassembly of the [4Fe-4S] cluster of cytoplasmic aconitase. This treatment is necessary as reactions of DOXol with [4Fe-4S] clusters would convert this metabolite back to DOX. Sizable amounts of DOXol would therefore go undetected if they reacted with [4Fe-4S] clusters prior to their assay. Unreacted dithiothreitol was eventually removed by sequential gel filtration on (1.5×10 cm) Sepharose 6B columns, protein reprecipitation with 65% ammonium sulfate, and extensive dialysis against 0.3 M NaCl, pH 7.0. Doxorubicin metabolism was reconstituted in 0.5 ml incubations containing cytosol (0.15 mg protein), NADPH (100 μM) and DOX (25 μM), in 0.3 M NaCl (pH 7.0) 37° C. Where indicated ethanol-dissolved taxanes (1-50 μM) were included. Aliquots of taxane-free ethanol (5 μl) were included as appropriate to adjust the final volume to 10 μl in all incubations. After 4 h DOX and DOXol were extracted with 2 ml of CHCl3/CH3OH (1:1) and separated by previously validated two-dimensional TLC on (20×20 cm) […] F524 Silica Gel Plates, using CHCl3/CH3OH/CH3COOH/H2O (80:20:14:6) as mobile phase in either dimension. Doxorubicinol was identified by cochromatography with (S)-DOXol from Streptomyces peucetius or (S)(R)-DOXol purified after NaBH4 reduction of DOX. Where indicated incubations were prepared by replacing DOX with DOX aglycone and by measuring formation of DOXol aglycone. The latter was separated from DOX aglycone by using CHCl3/CH3OH/CH3COOH (100:2:5) and CH3COOC2H5—CH3CH2OH—CH3COOH—H2O (80:10:5:5) in the first and second dimension, respectively. DOX aglycone was purified after thermoacid hydrolysis of DOX.

human cardiac cytosol [2] = assay: Conversion of DOX aglycone into DOXol aglycone, plus or minus taxanes, in human cardiac cytosol; conditions: for stimulation of conversion of DOX aglycone into DOXol aglycone (in words): DOX aglycone in place of DOX, plus taxane; for cytoplasmic conversion of doxorubicinone to doxorubicinolone: n=3
From the text: as §1, §2

[3] = test system: NADPH cytochrome P-450 reductase; assay: NADPH oxidation by deoxycholate-solubilized microsomes of human heart, plus or minus taxanes; conditions: 10 μM DOX, 1-10 μM taxane
Protocol: (§3) Reconstitution of DOX Metabolism and Free Radical Formation, Plus or Minus Taxanes, in Human Cardiac Microsomes.
(§4) 105,000 g pellets from human myocardium homogenates are solubilized with deoxycolate and reconstituted at the final concentration of 0.025 mg prot/ml with 10 μM DOX, 1-10 μM taxane, 0.1 mM NADPH, in 0.3 M NaCl, pH 7.0, 37° C.
(§5) Electron flow from NADPH cytochrome P-450 reductase to the quinone moiety of DOX is detected by monitoring NADPH oxidation. Redox coupling of the semiquinone with oxygen is detected by monitoring formation of the superoxide anion radical with the superoxide dismutase-inhibitable reduction of cytochrome c (25 μM). These assays are performed in a Hewlett Packard 8453A UV/VIS/NIR spectrometer equipped with computer-assisted corrections for scatter and turbidity.

human cardiac microsomes = assay: Superoxide anion formation (superoxide dismutase-inhibitable reduction of cytochrome c) by deoxycholate-solubilized human cardiac microsomes; conditions: for effect of taxane on DOX-dependent superoxide anion formation (in words): DOX plus 10 μM taxane; for generation of superoxide anion radicals in microsomal fractions: human cardiac microsomes, n=4-10
Protocol: as §3, §4, §5

[4] = taxane 1 μM with doxorubicinone
[5] = deoxycholate-solubilized microsomes
[6] = DOX alone, no taxane (baseline)

| SMILES | stimulation of DOXol formation (in words) (human cardiac cytosol [1]) | cytoplasmic conversion of DOX to doxorubicinol (human cardiac cytosol [1]; taxane 1 μM with DOX) [nmol/mg prot./4 h] | stimulation of conversion of DOX aglycone into DOXol aglycone (in words) (human cardiac cytosol [2]) | cytoplasmic conversion of doxorubicinone to doxorubicinolone (human cardiac cytosol [2]; [4]) [nmol/mg prot./4 h] | effect on NADPH oxidation in the presence of DOX (in words) [3] | effect of taxane on DOX-dependent superoxide anion formation (in words) (human cardiac microsomes; [5]) | generation of superoxide anion radicals in microsomal fractions (human cardiac microsomes; taxane 10 μM with DOX) [nmol/mg prot./min] | cytoplasmic conversion of doxorubicinone to doxorubicinolone (human cardiac cytosol [2]; doxorubicinone alone, no taxane (baseline)) [nmol/mg prot./4 h] | cytoplasmic conversion of DOX to doxorubicinol (human cardiac cytosol [1]; [6]) [nmol/mg prot./4 h] | generation of superoxide anion radicals in microsomal fractions (human cardiac microsomes; [6]) [nmol/mg prot./min] | effect of DOX on superoxide anion formation (in words) (human cardiac microsomes; deoxycholate-solubilized microsomes, DOX without taxane) |
| --- | --- | --- | --- | --- | --- | --- | --- | --- | --- | --- | --- |
| CC(=O)O[C@H]1C(=O)[C@@]2(C)[C@H]([C@H](OC(=O)c3ccccc3)[C@]3(O)C[C@H](OC(=O)[C@H](O)[C@@H](NC(=O)c4ccccc4)c4ccccc4)C(C)=C1C3(C)C)[C@]1(OC(C)=O)CO[C@@H]1C[C@@H]2O [PTX, paclitaxel] | stimulate DOXol formation | 1.1±0.2 | able to stimulate the conversion of DOX aglycone into DOXol aglycone | 1.4±0.2 | able to stimulate NADPH oxidation | significant increase in superoxide formation | 2.2±0.2 | – | – | – | – |
| COc1cccc2c1C(=O)c1c(O)c3c(c(O)c1C2=O)C[C@@](O)(C(=O)CO)C[C@@H]3O [doxorubicinone] | – | – | – | – | – | – | – | 0.8±0.1 | – | – | – |
| CC(=O)O[C@@]12CO[C@@H]1C[C@H](O)[C@@]1(C)C(=O)[C@H](O)C3=C(C)[C@@H](OC(=O)[C@H](O)[C@@H](NC(=O)OC(C)(C)C)c4ccccc4)C[C@@](O)([C@@H](OC(=O)c4ccccc4)[C@H]21)C3(C)C [DCT, docetaxel] | stimulate DOXol formation | 1.2±0.2 | able to stimulate the conversion of DOX aglycone into DOXol aglycone | 1.3±0.2 | – | significant increase in superoxide formation | – | – | – | – | – |
| COc1cccc2c1C(=O)c1c(O)c3c(c(O)c1C2=O)C[C@@](O)(C(=O)CO)C[C@@H]3O[C@H]1C[C@H](N)[C@H](O)[C@H](C)O1 [DOX, doxorubicin] | – | – | – | – | – | – | – | – | 0.46±0.04 | 1.6±0.1 | able to enhance superoxide anion formation |
| CSCO[C@H]1C[C@H]2OC[C@@]2(OC(C)=O)[C@H]2[C@H](OC(=O)c3ccccc3)[C@]3(O)C[C@H](OC(=O)[C@H](O)[C@@H](NC(=O)c4ccccc4)c4ccccc4)C(C)=C([C@@H](OC(C)=O)C(=O)[C@]12C)C3(C)C [7-methylthiomethyl taxol] | did not increase; also recorded: did not stimulate DOXol formation at any of the concentrations tested | – | did not increase; also recorded: has not been found to stimulate the formation of DOXol aglycone | – | appeared to inhibit NADPH oxidation | did not increase; also recorded: did not afford any significant stimulation | – | – | – | – | – |
